From publication PMC4500896, “Frog intestinal perfusion to evaluate drug permeability: application to p-gp and cyp3a4 substrates” (Frontiers in Pharmacology, 2015)

Columns and labels:
[1] = tested on: Caco-2; design: method as in b (footnote not given); conditions: Caco-2 cell data; ref b (footnote not given); cited from earlier work
[2] = Frog in situ single pass intestinal perfusion (SPIP), parallel-tube model; conditions: Rana tigrina (frog), pH 7.4
[3] = tested on: frog intestine; conditions: in vivo
[4] = tested on: human intestinal permeability; design: method as in a (footnote not given); conditions: reported human Peff; ref a (footnote not given); cited from earlier work
[5] = tested on: rat everted gut sac; conditions: rat everted gut sac model; ref c (footnote not given); cited from earlier work
[6] = tested on: frog intestine; experiment: Frog in situ single pass intestinal perfusion (SPIP), parallel-tube model; conditions: non-absorbable marker in outlet perfusate, frog SPIP

Question: Which “Effective permeability coefficient, Caco-2” value [1] does the source give for `CCCCc1nc(Cl)c(CO)n1Cc1ccc(-c2ccccc2-c2nn[nH]n2)cc1` [Losartan] here?
Answer: 0.022^b 10^-4cm s^-1

Question: What about the Papp at 90 min ([2]; other: in situ single pass intestinal perfusion) of the same compound?
Answer: 42.7 ± 27 ×10⁻⁶ cm/s

Question: And the “Change in Peff of the probe drug when co-perfused with inhibitors” value [3]?
Answer: significant change in Peff was observed

Question: And the “Effective permeability coefficient, Human” value [4]?
Answer: 1.15^a 10^-4cm s^-1

Question: What does the source list for `Cc1ncc2n1-c1ccc(Cl)cc1C(c1ccccc1F)=NC2` [Midazolam]?
Answer: Papp at 90 min [2]: 203 ± 7 ×10⁻⁶ cm/s; Effective permeability coefficient, Rat [5]: 2.08 ± 0.50^c 10^-4cm s^-1

Question: For `O=S1(=O)OC(c2ccc(O)cc2)(c2ccc(O)cc2)c2ccccc21` [phenol red], which “Recovery of phenol red” value [6] is on record?
Answer: 98.3 ± 1.0%
